# Assay results published in patent US20250280826A1, “PLANT GROWTH PROMOTER” (KAO CORPORATION, priority 2022, published 2025).
# How the values were obtained:
# [1] = tested on: soybean (Glycine max); experiment: Test Example 1: soybean yield (dry grain mass) in field after one foliar spray; format: in vivo
# Experimental: An ascorbic acid aqueous solution prepared by dissolving ascorbic acid in water and an ascorbic acid aqueous solution prepared by dissolving ascorbic acid in deionized water were prepared, and the influence of the ascorbic acid dissolved in water on the application effect for soybean (Glycine max) was examined.
# The influence of one foliar spray of 500 mass ppm ascorbic acid on the soybean yield was evaluated. The evaluated test plots 1 to 3 are as shown below. • 1 plot: control (no application) • 2 plot: foliar spray of 500 mass ppm ascorbic acid (dissolved in tap water) • 3 plot: foliar spray of 500 mass ppm ascorbic acid (dissolved in deionized water)
# The cultivation of soybean was carried out in a field in Tochigi Prefecture, and the soybean cultivar used was “Sato no Hohoemi.” Of the field, a ridge with a width of 2 m excluding the perimeter was used as one plot, and foliar spray treatment was carried out. […]
# The ascorbic acid used was “Food Additive Grade Vitamin C (L-ascorbic acid) Fine Mesh TypeSSS” manufactured by Fuso Chemical Co. Ltd. An aqueous solution of 500 mass ppm ascorbic acid was dissolved in tap water or deionized water for production. […] The dry grain mass was measured as yield data.
# After calculating the average grain weight of each plant in one plot, the mean and the standard deviation of three plots were calculated (FIG. 1).
# [2] = tested on: chickpea; experiment: Example 7: initial growth index in chickpea (above-ground part dry weight); format: in vivo; conditions: ascorbic acid 1 500 mass ppm, tap water vs deionized water
# Experimental: Medium-term fertilizer effect type culture soil (Takii hydrous cell medium-term fertilizer effect type, Takii & Co., Ltd.) and vermiculite grains (Akagi-Engei Co., Ltd.) were mixed at a volume ratio of 1:1, and the soil was placed in a polypot (diameter: 10.5 cm, height: 9 cm). The chickpea used was seeds of Kabuli species (purchased from Nikko Seed Co. Ltd.). After tap water was supplied in an amount of 250 mL per pot, 2 seeds per pot were each sown at a depth of from about 1 to 2 cm from the soil surface. The number of repeats in each test plot was 6 (n=6). […]
# The cultivation conditions and the foliar spray treatment method were the same as those in Example 6 (example of azuki bean). The evaluated test plots 1 to 4 are as follows.
# On day 28 after sowing, the plant body was dried at 90° C. for 24 hours, and the above-ground part dry weight of the plant body was then measured. • 1 plot: control (no application) • 2 plot: foliar spray of 1 500 mass ppm ascorbic acid (dissolved in tap water) • 3 plot: foliar spray of 1 500 mass ppm ascorbic acid (dissolved in deionized water) • 4 plot: foliar spray of 1 500 mass ppm ascorbic acid+1 mass ppm BHT+50 mass ppm isobutyl alcohol+350 mass ppm sorbitan monolaurate (dissolved in tap water) […]
# [3] = tested on: legume crops; conditions: total of three foliar sprays, ascorbic acid solution dissolved in distilled water, vegetative or reproductive growth stage; cited from earlier work
# [4] = tested on: azuki bean; experiment: Example 6: initial growth index in azuki bean (above-/below-ground part dry weight); format: in vivo; conditions: ascorbic acid 1 500 mass ppm, tap water vs deionized water
# Experimental: Medium-term fertilizer effect type culture soil (Takii hydrous cell medium-term fertilizer effect type, Takii & Co., Ltd.) and vermiculite grains (Akagi-Engei Co., Ltd.) were mixed at a volume ratio of 1:1, and the soil was placed in a polypot (diameter: 10.5 cm, height: 9 cm). The azuki bean seeds used were “Tamba Dainagon Azuki Beans” (purchased from Takii & Co., Ltd.). After tap water was supplied in an amount of 250 mL per pot, 2 seeds per pot were each sown at a depth of from about 1 to 2 cm from the soil surface. The number of repeats in each test plot was 6 (n=6). […]
# Spraying solutions were prepared, and 6.7 mL of each per plant was sprayed only once using a mister on day 21 after sowing. […] The evaluated test plots 1 to 4 are as follows.
# On day 28 after sowing, the plant body was dried at 90° C. for 24 hours, and the above-ground part dry weight and below-ground part dry weight of the plant body were then measured. • 1 plot: control (no application) • 2 plot: foliar spray of 1 500 mass ppm ascorbic acid (dissolved in tap water) • 3 plot: foliar spray of 1 500 mass ppm ascorbic acid (dissolved in deionized water) • 4 plot: foliar spray of 1 500 mass ppm ascorbic acid+1 mass ppm BHT+50 mass ppm isobutyl alcohol+350 mass ppm sorbitan monolaurate (dissolved in tap water)
compound,measurement,setting,value
"O=C1O[C@H]([C@@H](O)CO)C(O)=C1O [ascorbic acid, (R)-3,4-dihydroxy-5-((S)-1,2-dihydroxyethyl)furan-2(5H)-one]",effects of ascorbic acid on seed weight,[1]; 500 mass ppm dissolved in tap water,effects of ascorbic acid disappear
same,effects of tap water and deionized water on the seed weight,"[1]; 500 mass ppm, 20 mL per plant, day 60 after sowing, tap water vs deionized water",different effects
same,effects on the initial growth index,[2],varied in accordance with the water quality
same,increase the yield,[3],up to 30%
same,effects on the initial growth index,[4],varied in accordance with the water quality
